In patent US20250262167A1, “COMPOUNDS, TARGETS AND PATHWAYS FOR MACROPHAGE MODULATION” (Massachusetts Institute of Technology, priority 2020, published 2025):

How the values were obtained:
[1] = system: hMDMs differentiated into M1 by IFNγ plus TNFα; assay: Reprogramming screen and dosage response on M1-like differentiated macrophages; assay type: cell-based, human; settings: for EC (M2 Z-score cutoff): M2-activating compounds on M1-like macrophages (IFNγ plus TNFα), EC = concentration reaching Z-score cutoff; for Category: differentiated macrophages
Procedure: Data were summarized from 3 independent experiments.
(§1) Human macrophages were seeded into optical 384-well plates. Sixteen hours later, medium in M1 plates were replaced by M1 differentiating medium (complete RPMI with 50 ng/mL IFNγ and 50 ng/mL TNFα) and medium in M2 plates by M2 differentiating medium (complete RPMI with 5 ng/mL IL-4 and 5 ng/mL IL-13). After 24 hrs cell differentiation, M1 plates (M1 macrophages) and M2 plates (M2 macrophages) were treated with M2-activating compounds and M1-activating compounds respectively for 24 hrs. Two independent experiments were performed with or without replacing differentiating medium right before treatment. Cell imaging and analysis were performed as indicated above.
To investigate whether the identified compounds could reprogram or reactivate macrophages after M1- or M2-like differentiation, we rescreened the hits on M1- or M2-activated macrophages. hMDMs were activated into M2-like macrophages by IL-4 plus IL-13 or M1-like macrophages by IFNγ plus TNFα. […] 24 hours later, cell images were taken and cell shapes were quantified.
(§2) We also rescreened the hits on differentiated macrophages in the presence of differentiating cytokines: either IL-4 plus IL-13 or IFNγ plus TNFα.

[2] = system: hMDMs differentiated into M2 by IL-4 plus IL-13; assay: Reprogramming screen and dosage response on M2-like differentiated macrophages; settings: for EC (M1 Z-score cutoff): Homo sapiens, Macrophage, 24 h, read-out: EC;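 on all read-outs here: human monocyte-derived macrophages held 24 h in 5 ng/mL IL-4 plus IL-13 before 24 h compound exposure, with cell shape measured from images in 384-well plates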
Procedure: Shown are comparison of Z-scores between 5 μM or 10 μM of compounds. […] Shown are comparison of Z-scores between 5 μM or 10 μM of compounds. […] EC and fitness of 21 M1-polarizing (triangle) and 19 M2-polarizing compounds (circle) were calculated by the Michaelis-Menten equation and plotted. Data were summarized from 3 independent experiments.
as §1
To investigate whether the identified compounds could reprogram or reactivate macrophages after M1- or M2-like differentiation, we rescreened the hits on M1- or M2-activated macrophages. hMDMs were activated into M2-like macrophages by IL-4 plus IL-13 or M1-like macrophages by IFNγ plus TNFα. After removing the differentiating cytokines, M2-like macrophages were treated with each of the 166 M1-activating compounds and M1-like macrophages were treated with each of the 180 M2-activating compounds at a final concentration of either 5 μM and 10 μM. 24 hours later, cell images were taken and cell shapes were quantified. […] Dosage responses were carried out with 40 commercial available compounds (21 M1-activating and 19 M2-activating) on polarized macrophages.
as §2

[3] = system: human monocyte-derived macrophages (hMDMs); assay: High throughput phenotypic screen of macrophage activation (cell shape, Z-score); assay type: cell-based; set-up: key to Average Z-value: Z-score vs DMSO; negative = round cells, positive = elongated; settings: for activation state induced in the screen: compounds regulating actin-cytoskeleton; for cell shape induced: known M1-/M2-activating stimuli;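 on all read-outs here: phalloidin and DAPI stained hMDMs imaged by high-content microscopy, cell eccentricity compared with DMSO control by T-test, round morphology scored negative, elongated positive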
Procedure: The Z-score was calculated by T-test to measure the difference of cell morphology between treatment and control. Stimuli had negative Z-scores when induced cells to round morphology and positive scores when induced cells to elongated morphology. […] Equally mixed human monocytes isolated from fresh blood of 4 healthy donors were cultured in vitro with 50 ng/mL M-CSF for 7 days. hMDMs were trypsinized and plated on 384-well plates (5000 cells/well in 50 μL). Cells were recovered in 10 ng/mL M-CSF for 16 hrs and then treated with compounds for 24 hrs. Cells were washed, fixed and stained with Phalloidin and DAPI. The plates were scanned with a high-content microscope with six-fields per well to quantify the cell number and cell morphology. […] The cell eccentricity was calculated to measure the cell morphology. The Z-score was calculated by T-test to measure the difference in cell morphologies between each compound and DMSO control.
Cells were treated with a library of over 4000 individual compounds or drugs at the final concentration of 20 μM using the CyBi-Well simultaneous pipettor (CyBio). […] After 24 hr incubation, supernatants were removed using the microplate washer (Bioteck) and cells were fixed by adding 50 μL 16% paraformaldehyde (Thermo Scientific) with the dispenser for 20 minutes. Cells were then washed with 50 μL 1×PBS twice and incubated for 20 minutes with NucBlue and AF746 Phalloidin (Invitrogen) to stain nucleus and cytoskeleton. Cells were then washed with 50 μL 1×PBS twice and maintained in PBS for the image acquirement. Plates were read in the Opera Phenix high content screening system (PerkinElmer) to photograph cells using 20× objective in 2 fluorescent channels (Blue and FarRed). A total of 6 different fields in each well and an average of 1,000 cells were imaged per well. CellProfiler was used to identify each cell by overlapping signals from its nucleus and cytoskeleton, and calculate the eccentricity as the parameter to measure the cell morphology. The Z-score was calculated by T-test to measure the difference of cell morphology between each treatment and control. For each row of the 384-well plate, total 4 wells with first and last two columns treated with the same concentration of DMSO were combined as the control for the other 20 treatment wells in that row. In the meantime, classic M1 and M2 stimuli were added to generate the gold-standard Z-score cutoffs with M1 or M2 activation. Classic M1 stimuli include LPS (100 ng/mL), IFNγ (50 ng/mL, Peprotech), TNFα (50 ng/mL, Peprotech), or IFNγ plus TNFα. Classic M2 stimuli include IL-10 (10 ng/mL, Peprotech), IL-4 (10 ng/mL, Peprotech), or IL-13 (5 ng/mL, Peprotech).

hMDMs = assay: RNA-seq transcriptional response of hMDMs (GSEA, GO enrichment); assay type: cell-based, human; settings: hMDMs, 24 hrs, GSEA
Procedure: Duplicate hMDM samples were treated with 2 M2-activating and 6 M1-activating compounds as well as IL-4 and IFNγ for 24 hrs. Gene expression levels were measured by RNA-seq separately. GSEA preranked analysis was performed based on the whole genome gene list ranked on gene expression changes using a gene set of 49 transcriptional modules in response to 29 stimuli in hMDMs. bosut.: bosutinib; alster.: alsterpaullone; mocet.: mocetinostat; thios.: thiostrepton; niclo.: niclosamide; chlor.: chlorhexidine; fenb.: fenbendazole; fluvo.: fluvoxamine. […] Duplicate hMDM samples were stimulated with each ligand and analyzed by RNA-seq separately.
DEGs were identified by edgeR at P<0.05 with at least 2 fold-change.
RNAs were extracted with RNeasy MiniElute kit (Qiagen), converted into cDNA and sequenced using Next-Generation Sequencing (Illumina). […] Differential expression analysis was performed using the program edgeR at P<0.05 with a 2 fold-change. The gene expression level across different samples was normalized and quantified using the function of cpm. Differentially expressed genes were annotated using online functional enrichment analysis tool DAVID (http://david.ncifcrf.gov/). Gene set enrichment analysis were performed with GSEA with FDR q-value<0.05.
Fresh hMDMs were treated with compounds at the EC for 24 hours, followed by RNA-seq.

M0 macrophages (hMDMs) = assay: Dosage response of cell shape change on M0 macrophages; assay type: cell-based, human; settings: M0 macrophages
[4] = cell shape Z-score of hMDMs averaged over the compounds listed for the Wiki pathway, compounds at 20 µM for 24 hours, positive values = M2-like
[5] = cell shape Z-score of hMDMs treated with compound at 20 µM for 24 hours, averaged over the compounds listed for the WikiPathways pathway, negative = M1-like, positive = M2-like

Compound: COc1cc(Nc2c(C#N)cnc3cc(OCCCN4CCN(C)CC4)c(OC)cc23)c(Cl)cc1Cl [Bostunib]
- EC (M2 Z-score cutoff) ([1]; Homo sapiens, Macrophage, 24 h): 0.164 µM

Compound: CC(C)[C@]12O[C@H]1[C@@H]1O[C@]13[C@]1(O[C@H]1C[C@H]1C4=C(CC[C@@]13C)C(=O)OC4)[C@@H]2O [triptolide]
- EC (M2 Z-score cutoff) ([1]; Homo sapiens, Macrophage, 24 h): 0.0619 µM

Compound: Cc1oc(=O)oc1CN1CCN(c2cc3c(cc2F)c(=O)c(C(=O)O)c2n3C(C)S2)CC1 (centres unmarked) [Prulifloxacin]
- EC (M1 Z-score cutoff) [2]: 15 µM

Compound: CNC(=O)c1cc(Oc2ccc(NC(=O)Nc3ccc(Cl)c(C(F)(F)F)c3)cc2)ccn1 [Sorafenib]
- EC (M2 Z-score cutoff) ([1]; Homo sapiens, Macrophage, 24 h): 0.794 µM

Compound: CCCCc1ccc2[nH]c(NC(=O)OC)nc2c1 [parbendazole]
- activation state induced in the screen [3]: M1-activating

Compound: Cc1c(C(=O)Nc2ccc(N3C[C@@H](C)O[C@@H](C)C3)nc2)cccc1-c1ccc(OC(F)(F)F)cc1 [NVP-LDE225]
- EC (M2 Z-score cutoff) ([1]; Homo sapiens, Macrophage, 24 h): 2.77 µM

Compound: leptin: ligand of novel pathway
- gene expression of TPP modules (#30, #32) (hMDMs): down-regulated
- gene expression of typical M1 modules (#7, #8) (hMDMs): up-regulated

Compound: COc1cc([C@@H]2c3cc4c(cc3[C@H](O)[C@H]3COC(=O)[C@H]23)OCO4)cc(OC)c1OC [podofilox]
- activation state induced in the screen [3]: M2-activating

Compound: OC[C@H](Cc1ccccc1)Nc1nc(Oc2ccc3c(c2)CCC3)nc2c1ncn2Cc1ccc(-c2ccccc2)cc1 [QS 11]
- EC (M2 Z-score cutoff) [1]: 0.2611 µM
- Category [1]: M2 (6 for M2-activated macrophages)

Compound: CC(C)C[C@H](NC(=O)CNC(=O)c1cc(Cl)ccc1Cl)B(O)O [MLN2238]
- EC (M2 Z-score cutoff) ([1]; Homo sapiens, Macrophage, 24 h): 3.46 µM
- Average Z-value [3, 4]: 7.13

Compound: CC[C@@]1(O)C(=O)OCc2c1cc1n(c2=O)Cc2cc3c([N+](=O)[O-])cccc3nc2-1 [Rubitecan]
- Average Z-value [3, 5]: −4.17

Compound: JTE 013
- EC (M2 Z-score cutoff) [1]: 0.9381 µM
- Category [1]: M2 (6 for M2-activated macrophages)

Compound: NCCc1ccc(O)c(O)c1 [dopamine]
- gene expression of TPP modules (#30, #32) (hMDMs): up-regulated
- gene expression of typical M1 modules (#7, #8) (hMDMs): down-regulated

Compound: Cc1ccc(O)c(N=Nc2ccccc2)n1 [SIB 1757]
- Average Z-value [3, 5]: −7.89

Compound: Cc1nc(Nc2ncc(C(=O)Nc3c(C)cccc3Cl)s2)cc(N2CCN(CCO)CC2)n1 [Dasatinib]
- EC (M2 Z-score cutoff) ([1]; Homo sapiens, Macrophage, 24 h): 0.762 µM

Compound: CC(C)c1ccc(Cn2ccc3c4c(N)nc(NC5CC5)nc4ccc32)cc1.Cl.Cl [SCH 79797 dihydrochloride]
- EC ([2]; M1-activating compounds on M2-like macrophages (IL-4 plus IL-13), EC = concentration reaching Z-score cutoff): 0.2194 µM
- Category ([2]; differentiated macrophages): M1 (−4 for M1-activated macrophages)

Compound: O=C(O)c1nn(Cc2ccc(Cl)cc2Cl)c2ccccc12 [LONIDAMINE]
- Average Z-value [3, 4]: 6.13

Compound: IL13: classic M2 stimulus
- cell shape induced [3]: elongated cell shape

Compound: CCCCC[C@H](O)/C=C/[C@H]1[C@H](O)CC(=O)[C@@H]1CCCCCCC(=O)O [Alprostadil]
- EC (M1 Z-score cutoff) [2]: 0.0562 µM
- Average Z-value [3, 5]: −4.86

Compound: CN1c2cc3c(cc2N=C(c2ccc(C(=O)O)cc2)c2ccccc21)C(C)(C)CCC3(C)C [LE135]
- Category (M0 macrophages (hMDMs)): M1 (−4 for M1-activated macrophages)
- EC (M0 macrophages (hMDMs); EC = concentration inducing cell morphology changes to reach the M1 or M2 Z-score cutoff, Michaelis-Menten fit, 3 independent experiments, unit of the source corrected): 0.419 µM
- Max absolute Z-value (M0 macrophages (hMDMs); Max Z-score from Michaelis-Menten equation, negative = round, positive = elongated): −8.912

Compound: VEGF
- gene expression of TPP modules (#30, #32) (hMDMs): down-regulated
- gene expression of typical M1 modules (#7, #8) (hMDMs): up-regulated

Compound: lipopolysaccharide [LPS]
- cell shape induced [3]: round shape
